{
  "source": "patent US7595056B1",
  "about": "“Methods of rejuvenating Leydig cells and enhancing testosterone production in a male subject” (University of Tennessee Research Foundation, priority 2002, dated 2009)",
  "key": {"Leydig cells [1]": {"system": "Leydig cells", "settings": "Leydig cells isolated from 60 days old rats, in vitro; cited from earlier work"}, "[2]": {"system": "testis of Brown Norway rats", "experiment": "Microscopy and stereology of the testis of aged Brown Norway rats treated 4 weeks with LH, T4 or LH+T4", "type": "in vivo, Brown Norway rat", "text": "(§1) Male Brown Norway rats aged 3, 6, 12 (n=8 per group; 3M, 6M, and 12M, respectively), and 18 months (M) (n=32; 18M) were purchased from Harlan (Madison, Wis., United States of America). The 18M rats were divided equally into four groups (n=8 per group). Under deep inhalation anesthesia (METOFANE™; Malincroft Veterinary, Inc., Mundelein, Ill., United States of America), the four groups of 18M rats were implanted subdermally with ALZET™ mini-osmotic pumps (model 2ML4; Alza Corporation, Palo Alto, Calif., United States of America), containing saline (control), LH (24 μg/day; National Hormone and Pituitary Program, Los Angeles, Calif., United States of America), thyroxine (T4; 5 μg/day; Sigma, St. Louis, Mo., United States of America), and LH and T4 (LH+T4; two pumps, 24 […] of T4), respectively, for 4 weeks (to 19 months [19M] of age). These doses of LH (Mendis-Handagama et al., (1998) Tissue Cell 30:64-73) and thyroid hormone (Ariyaratne et al., (2000) Biol. Reprod. 63:1115-1123) were used based on previously published studies. Rats were maintained under conditions of controlled temperature (25° C.) and lighting (14 hour/10 hour light/dark cycle) and were housed individually (one rat per cage). The animals were fed with Agway PROLAB™ rat formula (Agway, Syracuse, N.Y., United States of America) and water ad libitum until they were sacrificed. The animal protocol employed (No. 488) meets the guidelines of the National Institutes of Health and was approved by the University of Tennessee Animal Care and Concerns Committee.\nPumps were filled with either saline, LH, or T4, and were primed in saline for 3 hours before implantation so that they would deliver their contents immediately on subdermal implantation into the interscapular region. The LH+T4 rats received two pumps each, one containing LH and one containing T4; the other rats received one pump containing either saline, LH, or T4. After 4 weeks of treatment, rats were sacrificed. In addition, implanted pumps were removed and examined to verify that they had delivered their contents as expected.\nOne testis of each rat in the 3M, 6M, 12M, and 19M age groups was removed, cleaned of fat, and weighed on a Mettler H54 balance to obtain the fresh testis weight. Using the flotation technique (Mendis-Handagama et al., (1988) Am. J. Anat. 181:12-22; Mori & Christensen, (1980) J. Cell. Biol. 84:340-354; and Mendis-Handagama & Ewing, (1990) J. Microsc. (Oxf) 159:73-82), the specific gravity of the fresh testis was determined as described previously (Mori & Christensen, (1980) J. Cell. Biol. 84:340-354 and Mendis-Handagama & Ewing, (1990) J. Microsc. (Oxford) 159:73-82), and the fresh testis volume was calculated by dividing the fresh testis weight by the specific gravity (in metric units, specific gravity equals density). This measurement is required to express Leydig cell numbers per testis, because numerical density is obtained as a number per unit volume of the testis. The testis was then decapsulated, and the entire testis was incubated for 3 hours in the same medium as described previously (Ariyaratne et al., (2000) Biol. Reprod. 63:1115-1123; Mendis-Handagama et al., (1998) Biol. Reprod. 59:351-357; Mendis-Handagama et al., (1990) J. Androl. 11:548-554; Ariyaratne et al., (2000) Biol. Reprod. 63:493-502; and Ariyaratne & Mendis-Handagama, (2000) Biol. Reprod. 62:158-168) to determine the LH-stimulated testosterone-secretory capacity per testis in vitro. Testosterone levels in the incubation medium were measured by RIA using commercially available kits (COAT-A-COUNT™), and the details of the assay are given above (see Laboratory Example 4). Testosterone-secretory capacity per Leydig cell was calculated by dividing the testosterone-secretory capacity per testis by the number of Leydig cells per testis. […]"}, "Leydig cells [3]": {"system": "Leydig cells", "experiment": "LH-stimulated testicular steroidogenesis in vitro (testis of treated rats incubated 3 hours, testosterone by RIA)", "type": "in vivo, Brown Norway rat", "text": "Male Brown Norway rats aged 3, 6, 12 (n=8 per group; 3M, 6M, and 12M, respectively), and 18 months (M) (n=32; 18M) were purchased from Harlan (Madison, Wis., United States of America). The 18M rats were divided equally into four groups (n=8 per group). Under deep inhalation anesthesia (METOFANE™; Malincroft Veterinary, Inc., Mundelein, Ill., United States of America), the four groups of 18M rats were implanted subdermally with ALZET™ mini-osmotic pumps (model 2ML4; Alza Corporation, Palo Alto, Calif., United States of America), containing saline (control), LH (24 μg/day; National Hormone and Pituitary Program, Los Angeles, Calif., United States of America), thyroxine (T4; 5 μg/day; Sigma, St. Louis, Mo., United States of America), and LH and T4 (LH+T4; two pumps, 24 […] of T4), respectively, for 4 weeks (to 19 months [19M] of age). […]\nOne testis of each rat in the 3M, 6M, 12M, and 19M age groups was removed, cleaned of fat, and weighed on a Mettler H54 balance to obtain the fresh testis weight. Using the flotation technique (Mendis-Handagama et al., (1988) Am. J. Anat. 181:12-22; Mori & Christensen, (1980) J. Cell. Biol. 84:340-354; and Mendis-Handagama & Ewing, (1990) J. Microsc. (Oxf) 159:73-82), the specific gravity of the fresh testis was determined as described previously (Mori & Christensen, (1980) J. Cell. Biol. 84:340-354 and Mendis-Handagama & Ewing, (1990) J. Microsc. (Oxford) 159:73-82), and the fresh testis volume was calculated by dividing the fresh testis weight by the specific gravity (in metric units, specific gravity equals density). […] Testosterone levels in the incubation medium were measured by RIA using commercially available kits (COAT-A-COUNT™), and the details of the assay are given above (see Laboratory Example 4). Testosterone-secretory capacity per Leydig cell was calculated by dividing the testosterone-secretory capacity per testis by the number of Leydig cells per testis. […]"}, "[4]": {"experiment": "RIA for serum LH, T4, triiodothyronine and testosterone of treated rats", "type": "in vivo, Brown Norway rat", "text": "as §1, with “Committee. […]” for “Committee.”\nSerum LH hormone was quantified using a commercially available rat luteinizing hormone (rLH) kit (Amersham Pharmacia Biotech, Piscataway, N.J., United States of America). […]\nThe PC SAS software (SAS Institute Inc., Cary, N.C., United States of America) was used to analyze the data. Results are expressed as mean± standard error of the mean (SEM). […]"}, "rat TSH (rat)": {"molecular_target": "rat TSH (rat) (UniProt P11962)", "experiment": "RIA, rat LH kit (Amersham Pharmacia Biotech); cross-reactivity against rat LH as reference"}, "[5]": {"molecular_target": "rat adenocorticotropic hormone (ACTH) (rat) (UniProt P01194)", "sequence (P01194 124-162 limits assumed)": "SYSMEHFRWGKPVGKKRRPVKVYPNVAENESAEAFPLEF", "experiment": "RIA, rat LH kit (Amersham Pharmacia Biotech); cross-reactivity against rat LH as reference"}, "[6]": {"molecular_target": "rat follicle stimulating hormone (FSH) (rat) (UniProt P11962)", "experiment": "RIA, rat LH kit (Amersham Pharmacia Biotech); cross-reactivity against rat LH as reference"}, "rat growth hormone (rat)": {"molecular_target": "rat growth hormone (rat) (UniProt P01244)", "sequence (P01244 27-216 limits assumed)": "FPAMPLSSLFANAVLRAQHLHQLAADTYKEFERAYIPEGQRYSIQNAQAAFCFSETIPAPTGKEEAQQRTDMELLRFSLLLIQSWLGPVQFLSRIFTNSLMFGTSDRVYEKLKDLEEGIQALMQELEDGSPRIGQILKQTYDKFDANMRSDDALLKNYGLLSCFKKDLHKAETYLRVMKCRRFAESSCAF", "experiment": "RIA, rat LH kit (Amersham Pharmacia Biotech); cross-reactivity against rat LH as reference"}, "rat prolactin (rat)": {"molecular_target": "rat prolactin (rat) (UniProt P01237)", "sequence (P01237 30-226 limits assumed)": "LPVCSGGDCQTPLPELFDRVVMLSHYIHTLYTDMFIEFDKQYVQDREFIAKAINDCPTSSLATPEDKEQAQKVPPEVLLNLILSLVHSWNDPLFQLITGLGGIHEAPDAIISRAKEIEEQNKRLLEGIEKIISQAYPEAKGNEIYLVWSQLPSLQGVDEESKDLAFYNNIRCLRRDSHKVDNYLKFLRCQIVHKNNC", "experiment": "RIA, rat LH kit (Amersham Pharmacia Biotech); cross-reactivity against rat LH as reference"}, "[7]": {"settings": "19M Brown Norway rats after 4 weeks subdermal osmotic pump (LH 24 μg/day, T4 5 μg/day), mean, n=8"}},
  "note": "“Also recorded” adds a separate entry of the source.",
  "data": [
    {"molecule": "N[C@@H](Cc1cc(I)c(Oc2ccc(O)c(I)c2)c(I)c1)C(=O)O", "note": "[T3, L-3,5,3′-triiodothyronine]", "values": [
      {"measurement": "Effect on testosterone secretion of Leydig cells", "setting": "Leydig cells [1]", "result": "increased testosterone secretion of Leydig cells in a dose dependent fashion up to 50 ng"},
      {"measurement": "Minimum effective dose for testosterone production", "setting": "Leydig cells [1]", "result": 25, "unit": "ng"}
    ]},
    {"molecule": "N[C@@H](Cc1cc(I)c(Oc2cc(I)c(O)c(I)c2)c(I)c1)C(=O)O", "note": "[T4, L-3,5,3′,5′-tetraiodothyronine]", "values": [
      {"measurement": "Average volume of a Leydig cell", "setting": "[2]; [7]", "result": 1998, "unit": "μm^3"},
      {"measurement": "Leydig cell number per Testis", "setting": "[2]; [7]", "result": "21.80 10^6"},
      {"measurement": "Volume density of Leydig cells", "setting": "[2]; [7]", "result": 2.38, "unit": "%"},
      {"measurement": "Absolute volume of Leydig cells per testis, comparison between groups in words", "setting": "[2]; 19M treated rats versus 19M control and younger rats, P<0.05", "result": "higher values compared to 19M control rats; also recorded: not significantly different from those of 12M rats"},
      {"measurement": "Average volume of a Leydig cell, comparison between groups in words", "setting": "[2]; 19M treated rats versus younger rats, P<0.05", "result": "significantly lower than those in 3M and 6M rats; also recorded: partially effective"},
      {"measurement": "Size of Leydig cell profiles in tissue sections", "setting": "[2]; light microscopy, 19M treated rats versus 19M control rats", "result": "much larger than those in 19M control rats"},
      {"measurement": "Mean Absolute Volume of Leydig cells", "setting": "[2]; per testis, 19M Brown Norway rats after 4 weeks subdermal osmotic pump (LH 24 μg/day, T4 5 μg/day), mean, n=8", "result": 43.57, "unit": "mm^3"},
      {"measurement": "LH-stimulated testosterone-secretory capacity per testis and per Leydig cell in vitro, comparison between groups in words", "setting": "Leydig cells [3]; 19M treated rats versus younger rats", "result": "comparable to those in 12M rats"},
      {"measurement": "Mean Testosterone-Secretory Capacity Per testis", "setting": "Leydig cells [3]; LH-stimulated, in vitro, 3 hours incubation, testis of 19M rats treated 4 weeks (LH 24 μg/day, T4 5 μg/day), mean, n=8", "result": "14,748 ng"},
      {"measurement": "Mean Testosterone-Secretory Capacity Per Leydig cell", "setting": "Leydig cells [3]; LH-stimulated, in vitro, capacity per testis divided by number of Leydig cells per testis, 19M rats treated 4 weeks", "result": 0.67, "unit": "pg"},
      {"measurement": "Mean Serum Testosterone", "setting": "[4]; [7]", "result": 73, "unit": "ng/dL"},
      {"measurement": "Serum LH levels, comparison between groups in words", "setting": "[4]; 19M treated rats versus 3M through 12M rats", "result": "reduced significantly"},
      {"measurement": "Serum testosterone levels, comparison between groups in words", "setting": "[4]; 19M treated rats versus 19M controls and younger rats, P<0.05", "result": "significantly greater than 19M controls; also recorded: significantly lower than those in 3M through 12M rats; also recorded: not sufficient to upgrade the serum testosterone levels in 19M rats to those of 3M and 6M rats"}
    ]},
    {"molecule": "antibody for LH of the commercially available rat luteinizing hormone (rLH) RIA kit (Amersham Pharmacia Biotech)", "values": [
      {"measurement": "cross-reactivity", "setting": "rat TSH (rat)", "result": 0.66, "unit": "%"},
      {"measurement": "cross-reactivity", "setting": "[5]", "result": "< 0.00092", "unit": "%"},
      {"measurement": "cross-reactivity", "setting": "[6]", "result": "< 0.016", "unit": "%"},
      {"measurement": "cross-reactivity", "setting": "rat growth hormone (rat)", "result": 0.1, "unit": "%"},
      {"measurement": "cross-reactivity", "setting": "rat prolactin (rat)", "result": "< 0.8", "unit": "%"}
    ]}
  ]
}
